Measured values published in patent publication US8063026B2, “Method of palliating lower urinary tract infections by treatment with mannan oligosaccharides” (priority 2006, dated 2011).

System: UTI symptoms
Experiment: Treatment of UTI symptoms in a patient (case reports)
Assay type: in vivo, human
Conditions: recurrent UTI episodes about 48 hours after sex, 1 tablet twice daily for five days
Protocol: A patient had been experiencing urinary tract infections since 1999. Episodes were very painful and invariably occurred about 48 hours after having sex. […] This pattern persisted for 6 years.
During an episode of UTI symptoms (urge to urinate; severe burning with urination; blood in urine), 100 mg MOS was administered to a patient (weighing approximately 50 kg) as a tablet (BioMOS® tablets, Alltech)-1 tablet before and after sex, plus three tablets per day.
Beginning during a symptom-free period, 100 mg MOS was administered to a patient (weighing approximately 50 kg) as a tablet (BioMOS® tablets, Alltech), once per day plus one pill with sex.
During a symptom-free period, 500 mg of MOS was administered as a capsule (capsules prepared from bulk CitriStim™, Archer Daniels Midland Alliance Nutrition, Inc., Quincy, Ill.; 1 or 2 capsules daily). […] Two capsules (CitriStim) were administered (three hours apart), followed 2 hours later by 100 mg MOS in tablet form (BioMOS® tablets, Alltech). […] Two MOS tablets were administered that morning (4 hours apart). In the late afternoon, a CitriStim capsule was administered, and one capsule was administered twice the following day.

Molecule	Relief of UTI symptoms
O=C(O)c1cn(C2CC2)c2cc(N3CCNCC3)c(F)cc2c1=O [Cipro®, ciprofloxacin]	quickly relieve symptoms
trimethoprim-sulfamethoxazole [Bactrin DS®]	quickly relieve symptoms
